{
  "source": "paper PMC2880636",
  "about": "(Journal of medicinal chemistry, 2009)",
  "key": {"antinociception": {"test_system": "antinociception", "assay": "warm-water tail immersion test, agonist", "details": "doses up to 100 mg/kg"}, "μ opioid receptor (MOR)": {"molecular_target": "μ opioid receptor (MOR) (Mus musculus, UniProt P42866)", "sequence (P42866 whole entry)": "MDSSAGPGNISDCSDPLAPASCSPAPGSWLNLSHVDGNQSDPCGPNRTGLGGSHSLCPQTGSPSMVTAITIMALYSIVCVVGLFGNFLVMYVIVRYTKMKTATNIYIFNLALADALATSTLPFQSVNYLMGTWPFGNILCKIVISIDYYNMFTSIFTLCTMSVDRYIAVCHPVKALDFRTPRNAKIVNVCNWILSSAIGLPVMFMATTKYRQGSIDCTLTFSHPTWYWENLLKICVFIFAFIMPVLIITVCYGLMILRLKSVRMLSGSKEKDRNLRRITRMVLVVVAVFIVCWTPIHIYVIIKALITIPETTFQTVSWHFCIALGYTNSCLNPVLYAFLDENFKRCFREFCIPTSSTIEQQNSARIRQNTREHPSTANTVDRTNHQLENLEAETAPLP", "assay": "competitive radioligand binding, [3H]naloxone, monocloned receptor in CHO cells"}, "morphine antinociception": {"test_system": "morphine antinociception", "assay": "warm-water tail immersion test, blockade of morphine antinociception", "details": "sc, 5 min before morphine 10 mg/kg sc; 56 °C; tested 20 min later"}, "W318A mutant MOR": {"molecular_target": "W318A mutant MOR (Mus musculus, UniProt P42866, W318A)", "sequence (P42866 whole entry W318A)": "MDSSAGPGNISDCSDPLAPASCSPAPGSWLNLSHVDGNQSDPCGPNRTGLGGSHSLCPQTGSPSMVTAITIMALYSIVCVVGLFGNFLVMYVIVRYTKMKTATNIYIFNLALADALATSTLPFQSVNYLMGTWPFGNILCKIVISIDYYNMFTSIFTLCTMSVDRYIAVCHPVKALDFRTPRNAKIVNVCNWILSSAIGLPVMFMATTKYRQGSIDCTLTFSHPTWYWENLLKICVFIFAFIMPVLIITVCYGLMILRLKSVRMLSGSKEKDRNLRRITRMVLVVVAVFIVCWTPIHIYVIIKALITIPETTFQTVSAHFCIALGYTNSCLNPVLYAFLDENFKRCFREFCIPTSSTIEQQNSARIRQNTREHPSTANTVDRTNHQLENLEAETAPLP", "type": "binding"}, "MOR": {"molecular_target": "MOR (Mus musculus, UniProt P42866)", "sequence (P42866 whole entry)": "as the sequence (P42866 whole entry) above", "assay": "35S-GTP[γS]-binding functional assay in MOR expressing CHO cells", "type": "biochemical", "details": "Emax relative to full agonist DAMGO (3 μM)"}},
  "data": [
    {"smiles": "O=C(N[C@H]1CC[C@@]2(O)[C@H]3Cc4ccc(O)c5c4[C@@]2(CCN3CC2CC2)[C@H]1O5)c1cc2ccccc2cn1", "note": "[Compound 9, 17-Cyclopropylmethyl-3,14β-dihydroxy-4,5α-epoxy-6α-[(3′-isoquinolyl)acetamido]morphinan]", "values": [
      {"measurement": "agonist effect in tail immersion test", "setting": "antinociception", "result": "neither of these ligands produced any agonist effect"},
      {"measurement": "selectivity for the MOR over the DOR", "setting": "μ opioid receptor (MOR)", "result": "over 200 fold"},
      {"measurement": "selectivity for the MOR over the KOR", "setting": "μ opioid receptor (MOR)", "result": "approximately 50 fold"},
      {"measurement": "AD50 value (mg/kg (95% CL)) for blockade of morphine antinociception", "setting": "morphine antinociception", "result": "0.45 (0.27–0.78) mg/kg"},
      {"measurement": "IC50", "setting": "W318A mutant MOR", "result": "> 1", "unit": "µM"},
      {"measurement": "% max of DAMGO", "setting": "MOR", "result": "approximately 20%"}
    ]},
    {"smiles": "O=C(N[C@@H]1CC[C@@]2(O)[C@H]3Cc4ccc(O)c5c4[C@@]2(CCN3CC2CC2)[C@H]1O5)c1cc2ccccc2cn1", "note": "[Compound 10]", "values": [
      {"measurement": "AD50 value (mg/kg (95% CL)) for blockade of morphine antinociception", "setting": "morphine antinociception", "result": "inactive"}
    ]},
    {"smiles": "O=C(N[C@H]1CC[C@@]2(O)[C@H]3Cc4ccc(O)c5c4[C@@]2(CCN3CC2CC2)[C@H]1O5)c1cnc2ccccc2c1", "note": "[Compound 13, 17-Cyclopropylmethyl-3,14β-dihydroxy-4,5α-epoxy-6α-[(3′-quinolyl)acetamido]morphinan]", "values": [
      {"measurement": "AD50 value (mg/kg (95% CL)) for blockade of morphine antinociception", "setting": "morphine antinociception", "result": "4.45 (2.41–8.15) mg/kg"}
    ]},
    {"smiles": "O=C(N[C@@H]1CC[C@@]2(O)[C@H]3Cc4ccc(O)c5c4[C@@]2(CCN3CC2CC2)[C@H]1O5)c1cnc2ccccc2c1", "note": "[Compound 14, 17-Cyclopropylmethyl-3,14β-dihydroxy-4,5α-epoxy-6β-[(3′-quinolyl)acetamido]morphinan]", "values": [
      {"measurement": "AD50 value (mg/kg (95% CL)) for blockade of morphine antinociception", "setting": "morphine antinociception", "result": "42.55 (23.67–76.51) mg/kg"}
    ]},
    {"smiles": "C=CCN1CC[C@]23c4c5ccc(O)c4O[C@H]2C(=O)CC[C@@]3(O)[C@H]1C5", "note": "[naloxone, reference compound]", "values": [
      {"measurement": "AD50 value (mg/kg (95% CL)) for blockade of morphine antinociception", "setting": "morphine antinociception", "result": "0.05 (0.03–0.09) mg/kg"}
    ]}
  ]
}
